Patent US12077503B2, “Substituted cyclic amides and their use as herbicides” (FMC CORPORATION, priority 2015, dated 2024)
Read-outs that look alike come from different tables or passages of the source.

Tests used:
Assay in all cases: Test A preemergence
Format in all cases: in vivo
[1] = test system: Kochia (Kochia scoparia); conditions: Bassia scoparia, pre-emergence, 240 h; for pest or weed control at 125 g/ha: 125 g ai/ha; for pest or weed control at 500 g/ha: 500 g ai/ha
Method in brief: (§1)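 Compounds were formulated in a non-phytotoxic solvent mixture with surfactant and applied as a preemergence directed soil spray after seeding, or sprayed postemergence over plants 2 to 10 cm tall at the one- to two-leaf stage. Evaluation after about 10 d compared treated with untreated controls, using a scale from 0 (no effect) to 100 (complete control).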

[2] = test system: barnyardgrass (Echinochloa crus-galli); conditions: Echinochloa crus-galli, pre-emergence, 240 h; for pest or weed control at 125 g/ha: 125 g ai/ha; for pest or weed control at 500 g/ha: 500 g ai/ha
Method in brief: as §1

[3] = test system: giant foxtail (Setaria faberii); conditions: Setaria faberi, pre-emergence, 240 h; for pest or weed control at 125 g/ha: 125 g ai/ha; for pest or weed control at 500 g/ha: 500 g ai/ha
Method in brief: as §1

[4] = test system: pigweed (Amaranthus retroflexus); conditions: Amaranthus retroflexus, pre-emergence, 240 h; for pest or weed control at 125 g/ha: 125 g ai/ha; for pest or weed control at 500 g/ha: 500 g ai/ha
[5] = test system: ragweed (common ragweed, Ambrosia elatior); conditions: Ambrosia artemisiifolia, pre-emergence, 240 h; for pest or weed control at 125 g/ha: 125 g ai/ha; for pest or weed control at 500 g/ha: 500 g ai/ha
Method in brief: as §1

[6] = test system: ryegrass, Italian (Italian ryegrass, Lolium multiflorum); conditions: Lolium multiflorum, pre-emergence, 240 h; for pest or weed control at 125 g/ha: 125 g ai/ha; for pest or weed control at 500 g/ha: 500 g ai/ha
Method in brief: as §1

[7] = preemergence, visual rating after approx. 10 d, 0 to 100 scale where 0 is no effect and 100 is complete control, read-out: Plant response rating, Kochia
[8] = preemergence, visual rating after approx. 10 d, 0 to 100 scale where 0 is no effect and 100 is complete control, read-out: Plant response rating, Barnyardgrass
[9] = preemergence, visual rating after approx. 10 d, 0 to 100 scale where 0 is no effect and 100 is complete control, read-out: Plant response rating, Foxtail, Giant
[10] = preemergence, visual rating after approx. 10 d, 0 to 100 scale where 0 is no effect and 100 is complete control, read-out: Plant response rating, Pigweed
[11] = preemergence, visual rating after approx. 10 d, 0 to 100 scale where 0 is no effect and 100 is complete control, read-out: Plant response rating, Ragweed
[12] = preemergence, visual rating after approx. 10 d, 0 to 100 scale where 0 is no effect and 100 is complete control, read-out: Plant response rating, Ryegrass, Italian
[13] = preemergence, 0 to 100 scale, 0 = no effect, 100 = complete control, read-out: Plant response rating, Kochia
[14] = preemergence, 0 to 100 scale, 0 = no effect, 100 = complete control, read-out: Plant response rating, Barnyardgrass
[15] = preemergence, 0 to 100 scale, 0 = no effect, 100 = complete control, read-out: Plant response rating, Foxtail, Giant
[16] = preemergence, 0 to 100 scale, 0 = no effect, 100 = complete control, read-out: Plant response rating, Pigweed
[17] = preemergence, 0 to 100 scale, 0 = no effect, 100 = complete control, read-out: Plant response rating, Ragweed
[18] = preemergence, 0 to 100 scale, 0 = no effect, 100 = complete control, read-out: Plant response rating, Ryegrass, Italian

Row | Structure (SMILES) | pest or weed control at 125 g/ha [1, 7] [%] | pest or weed control at 125 g/ha [2, 8] [%] | pest or weed control at 125 g/ha [3, 9] [%] | pest or weed control at 125 g/ha [4, 10] [%] | pest or weed control at 125 g/ha [5, 11] [%] | pest or weed control at 125 g/ha [6, 12] [%] | pest or weed control at 500 g/ha [1, 13] [%] | pest or weed control at 500 g/ha [2, 14] [%] | pest or weed control at 500 g/ha [3, 15] [%] | pest or weed control at 500 g/ha [4, 16] [%] | pest or weed control at 500 g/ha [5, 17] [%] | pest or weed control at 500 g/ha [6, 18] [%] | also measured
1 | CN1C[C@H](c2cccc([N+](=O)[O-])c2)[C@@H](C(=O)Nc2cccc(F)c2F)C1=O (racemic) [Compound 776] | 50 | 90 | 90 | 30 | 30 | 20 | – | – | – | – | – | – | pest or weed control at 500 g/ha ([1]; Preemergence, visual injury vs untreated controls after approximately 10 d, read-out: Kochia plant response rating (0 to 100 scale where 0 is no effect and 100 is complete control)): 60%; pest or weed control at 500 g/ha ([2]; Preemergence, visual injury vs untreated controls after approximately 10 d, read-out: Barnyardgrass plant response rating (0 to 100 scale where 0 is no effect and 100 is complete control)): 90%; pest or weed control at 500 g/ha ([3]; Preemergence, visual injury vs untreated controls after approximately 10 d, read-out: Foxtail, Giant plant response rating (0 to 100 scale where 0 is no effect and 100 is complete control)): 100%; pest or weed control at 500 g/ha ([4]; Preemergence, visual injury vs untreated controls after approximately 10 d, read-out: Pigweed plant response rating (0 to 100 scale where 0 is no effect and 100 is complete control)): 60%; pest or weed control at 500 g/ha ([5]; Preemergence, visual injury vs untreated controls after approximately 10 d, read-out: Ragweed plant response rating (0 to 100 scale where 0 is no effect and 100 is complete control)): 80%; pest or weed control at 500 g/ha ([6]; Preemergence, visual injury vs untreated controls after approximately 10 d, read-out: Ryegrass, Italian plant response rating (0 to 100 scale where 0 is no effect and 100 is complete control)): 50%
2 | C=CN1C[C@H](c2ccc(C)c(F)c2)[C@@H](C(=O)Nc2cccc(F)c2F)C1=O (racemic) [Compound 1332] | – | – | – | – | – | – | – | – | – | – | – | – | pest or weed control at 500 g/ha ([1]; preemergence, 0 to 100 scale (0 no effect, 100 complete control), read-out: Plant response rating, Kochia): 0%; pest or weed control at 125 g/ha ([1]; Preemergence, 0 to 100 scale (0 no effect, 100 complete control), read-out: Plant response rating, Kochia): 0%; pest or weed control at 500 g/ha ([2]; preemergence, 0 to 100 scale (0 no effect, 100 complete control), read-out: Plant response rating, Barnyardgrass): 90%; pest or weed control at 125 g/ha ([2]; Preemergence, 0 to 100 scale (0 no effect, 100 complete control), read-out: Plant response rating, Barnyardgrass): 70%; pest or weed control at 500 g/ha ([3]; preemergence, 0 to 100 scale (0 no effect, 100 complete control), read-out: Plant response rating, Foxtail, Giant): 90%; pest or weed control at 125 g/ha ([3]; Preemergence, 0 to 100 scale (0 no effect, 100 complete control), read-out: Plant response rating, Foxtail, Giant): 80%; pest or weed control at 500 g/ha ([4]; preemergence, 0 to 100 scale (0 no effect, 100 complete control), read-out: Plant response rating, Pigweed): 0%; pest or weed control at 125 g/ha ([4]; Preemergence, 0 to 100 scale (0 no effect, 100 complete control), read-out: Plant response rating, Pigweed): 0%; pest or weed control at 500 g/ha ([5]; preemergence, 0 to 100 scale (0 no effect, 100 complete control), read-out: Plant response rating, Ragweed): 0%; pest or weed control at 125 g/ha ([5]; Preemergence, 0 to 100 scale (0 no effect, 100 complete control), read-out: Plant response rating, Ragweed): 0%; pest or weed control at 500 g/ha ([6]; preemergence, 0 to 100 scale (0 no effect, 100 complete control), read-out: Plant response rating, Ryegrass, Italian): 0%; pest or weed control at 125 g/ha ([6]; Preemergence, 0 to 100 scale (0 no effect, 100 complete control), read-out: Plant response rating, Ryegrass, Italian): 0%
3 | Cc1cc([C@H]2CNC(=O)[C@@H]2C(=O)Nc2ccccc2F)ccc1F [Compound 717] | 0 | 90 | 80 | 0 | 0 | 0 | 60 | 90 | 90 | 30 | 40 | 30 | –
4 | Cc1cc([C@H]2CNC(=O)[C@@H]2C(=O)Nc2ccc(F)cc2F)ccc1F [Compound 718] | 0 | 90 | 70 | 0 | 0 | 30 | 60 | 90 | 90 | 0 | 40 | 30 | –
5 | Cc1cc([C@H]2CN(C)C(=O)[C@@H]2C(=O)Nc2ccc(F)c(F)c2F)ccc1F [Compound 719] | 70 | 90 | 90 | 50 | 20 | 70 | 80 | 90 | 90 | 90 | 70 | 90 | –
